Source: patent publication EP4768487A1, “FUSED LACTAM RING COMPOUND AND USE THEREOF” (Chengdu Zenitar Biomedical Technology Co., Ltd., priority 2023, dated 2025)

Key:
[1] = test system: BRCA-mutated MDA-MB-436 cells; experiment: Anti-proliferative activity against cells (CCK8): MDA-MB-436; type: cell-based; settings: Homo sapiens, 72 h + 96 h culture
[2] = molecular target: T1, PARP-5A (Homo sapiens, UniProt O95271); experiment: biochemical
T1 sequence (O95271 1-1327): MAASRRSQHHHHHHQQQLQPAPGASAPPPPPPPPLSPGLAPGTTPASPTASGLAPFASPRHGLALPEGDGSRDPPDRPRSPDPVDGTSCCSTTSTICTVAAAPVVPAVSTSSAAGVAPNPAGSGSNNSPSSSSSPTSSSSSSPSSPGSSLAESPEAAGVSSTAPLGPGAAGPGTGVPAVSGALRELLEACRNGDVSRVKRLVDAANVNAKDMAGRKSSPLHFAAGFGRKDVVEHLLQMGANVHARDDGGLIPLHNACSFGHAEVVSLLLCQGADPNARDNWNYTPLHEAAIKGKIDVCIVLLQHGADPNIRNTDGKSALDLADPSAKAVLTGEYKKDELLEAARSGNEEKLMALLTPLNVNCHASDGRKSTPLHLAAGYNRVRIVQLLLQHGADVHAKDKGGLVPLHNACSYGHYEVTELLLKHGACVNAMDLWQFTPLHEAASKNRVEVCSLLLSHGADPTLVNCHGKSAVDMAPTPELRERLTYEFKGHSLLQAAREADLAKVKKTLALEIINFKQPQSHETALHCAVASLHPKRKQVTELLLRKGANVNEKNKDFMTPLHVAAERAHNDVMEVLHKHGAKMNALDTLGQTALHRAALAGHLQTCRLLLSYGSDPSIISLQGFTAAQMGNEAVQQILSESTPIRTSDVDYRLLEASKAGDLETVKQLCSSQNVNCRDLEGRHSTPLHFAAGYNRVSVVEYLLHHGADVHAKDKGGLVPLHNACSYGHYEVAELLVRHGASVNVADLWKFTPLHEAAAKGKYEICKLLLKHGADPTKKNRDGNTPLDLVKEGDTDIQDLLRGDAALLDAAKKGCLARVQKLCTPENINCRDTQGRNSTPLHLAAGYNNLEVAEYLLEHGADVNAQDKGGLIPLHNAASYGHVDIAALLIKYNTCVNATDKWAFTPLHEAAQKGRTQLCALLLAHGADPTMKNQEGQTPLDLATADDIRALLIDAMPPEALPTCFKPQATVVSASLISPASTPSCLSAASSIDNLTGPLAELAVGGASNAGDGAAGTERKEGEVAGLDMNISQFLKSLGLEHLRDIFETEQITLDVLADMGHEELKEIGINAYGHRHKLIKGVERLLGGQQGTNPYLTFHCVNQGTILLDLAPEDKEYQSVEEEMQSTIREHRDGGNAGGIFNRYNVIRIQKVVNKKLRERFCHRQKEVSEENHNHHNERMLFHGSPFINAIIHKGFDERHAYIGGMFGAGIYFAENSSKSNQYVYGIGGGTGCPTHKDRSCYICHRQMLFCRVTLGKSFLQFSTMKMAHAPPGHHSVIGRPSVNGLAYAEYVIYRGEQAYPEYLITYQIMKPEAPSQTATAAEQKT

[3] = molecular target: T2, PARP-7 (Homo sapiens, UniProt Q7Z3E1); experiment: Assay for enzymatic selectivity for PARP family: PARP-7
T2 sequence (Q7Z3E1 1-657): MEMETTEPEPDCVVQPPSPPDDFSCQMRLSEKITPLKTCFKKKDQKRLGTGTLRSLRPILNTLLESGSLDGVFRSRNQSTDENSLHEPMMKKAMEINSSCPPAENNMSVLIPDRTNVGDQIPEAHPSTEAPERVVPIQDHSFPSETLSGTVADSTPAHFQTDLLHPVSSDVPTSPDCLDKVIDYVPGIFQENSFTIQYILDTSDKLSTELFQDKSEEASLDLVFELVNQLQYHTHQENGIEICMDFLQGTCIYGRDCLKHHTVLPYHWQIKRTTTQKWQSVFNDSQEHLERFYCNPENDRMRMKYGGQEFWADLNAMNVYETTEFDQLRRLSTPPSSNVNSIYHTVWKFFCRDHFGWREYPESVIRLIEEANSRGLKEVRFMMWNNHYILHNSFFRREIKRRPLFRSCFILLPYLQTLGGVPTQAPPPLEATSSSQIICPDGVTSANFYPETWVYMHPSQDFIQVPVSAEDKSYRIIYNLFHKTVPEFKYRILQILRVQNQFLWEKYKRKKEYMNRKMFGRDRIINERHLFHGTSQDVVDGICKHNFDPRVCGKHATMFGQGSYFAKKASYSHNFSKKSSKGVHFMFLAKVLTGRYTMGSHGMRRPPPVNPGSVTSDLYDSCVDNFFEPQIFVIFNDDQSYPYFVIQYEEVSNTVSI

[4] = molecular target: T3, PARP-12 (Homo sapiens, UniProt Q9H0J9); experiment: Assay for enzymatic selectivity for PARP family: PARP-12
T3 sequence (Q9H0J9 1-701): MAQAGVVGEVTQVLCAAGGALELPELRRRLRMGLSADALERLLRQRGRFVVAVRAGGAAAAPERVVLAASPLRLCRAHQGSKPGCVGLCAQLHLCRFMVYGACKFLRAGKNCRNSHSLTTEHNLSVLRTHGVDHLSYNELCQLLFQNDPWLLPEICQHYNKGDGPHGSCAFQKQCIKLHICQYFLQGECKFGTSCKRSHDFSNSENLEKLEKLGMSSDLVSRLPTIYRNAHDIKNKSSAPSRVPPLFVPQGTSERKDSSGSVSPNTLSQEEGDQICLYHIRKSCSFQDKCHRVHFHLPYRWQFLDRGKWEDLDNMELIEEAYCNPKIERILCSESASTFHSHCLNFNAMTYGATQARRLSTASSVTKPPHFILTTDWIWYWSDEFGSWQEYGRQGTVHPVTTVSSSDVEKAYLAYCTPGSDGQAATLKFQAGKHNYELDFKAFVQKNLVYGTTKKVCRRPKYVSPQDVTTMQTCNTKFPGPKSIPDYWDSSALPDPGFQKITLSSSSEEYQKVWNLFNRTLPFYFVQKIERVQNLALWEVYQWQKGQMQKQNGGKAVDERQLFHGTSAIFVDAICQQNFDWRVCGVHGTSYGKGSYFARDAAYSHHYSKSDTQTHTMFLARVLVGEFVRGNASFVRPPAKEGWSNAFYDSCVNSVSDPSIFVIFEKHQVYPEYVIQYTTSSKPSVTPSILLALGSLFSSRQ

IC50 [1] [nM] | SMILES | IC50 [2] [nM] | IC50 [3] [nM] | IC50 [4] [nM]
0.25 | CCc1cc2c([nH]c1=O)CC(CN1CCN(c3ccc(C(=O)NC)nc3F)CC1)OC2 (centres unmarked) [Compound 2, 5-(4-((3-Ethyl-2-oxo-1,5,7,8-tetrahydro-2H-pyrano[4,3-b]pyridin-7-yl)methyl)piperazin-1-yl)-6-fluoro-N-methyl picolinamide] | 975 | > 10000 | 1990
7 | CNC(=O)c1ccc(N2CCN(CC3Cc4[nH]c(=O)c(C)cc4CO3)CC2)c(Cl)n1 (centres unmarked) [Example 74, 6-Chloro-N-methyl-5-(4-((3-methyl-2-oxo-1,5,7,8-tetrahydro-2H-pyrano[4,3-b]pyridin-7-yl)methyl)piperazin-1-yl)picolinamide] |  |  | 
 | CNC(=O)c1ccc(N2CCN(C[C@H]3CCc4nc(C)c(=O)[nH]c4C3)CC2)c(F)n1 [Example 45, (S)-6-Fluoro-N-methyl-5-(4-((2-methyl-3-oxo-3,4,5,6,7,8-hexahydroquinoxaline-6-yl)methyl)piperazin-1-yl)picolinamide] | 1930 | 5990 | 862
